Test results published in patent US20140322434A1, “METHODS FOR PRODUCING ELECTROPHOTOGRAPHIC PHOTOSENSITIVE MEMBER AND ORGANIC DEVICE EACH HAVING CHARGE TRANSPORTING LAYER” (CANON KABUSHIKI KAISHA, priority 2011, published 2014).
Where two headings read alike, the source gives them in different places.

Assays:
[1] = Solubility in water at 25° C. and 1 atm
Description: In the method for producing an electrophotographic photosensitive member of the present invention, the charge transporting substance and the binder resin are dissolved in the first liquid to prepare the first solution. […] Specific examples of the first liquid are shown in Table 1, but are not limited to the examples in Table 1.
Then, the second solution will be described.

[2] = Solubility of second liquid in the first liquid at 25° C. and 1 atm; settings: for solubility in first solution: liquids of Comparative Examples 5 to 11; for Solubility in first liquid: first liquid described in Table 1
[3] = liquids of Comparative Examples 5 to 11, 25° C. and 1 atm
[4] = second liquid, 25° C. and 1 atm

| SMILES | Solubility in first liquid [2] | also measured |
| --- | --- | --- |
| Clc1ccccc1Cl [First liquid example (3), o-Dichlorobenzene] | – | Solubility in water [1]: 0.0 mass % |
| Clc1ccccc1 [First liquid example (4), Chlorobenzene] | – | Solubility in water ([1]; first liquid, 25° C. and 1 atm): 0.1 mass % |
| Cc1ccccc1C [First liquid example (5), o-Xylene] | – | Solubility in water ([1]; first liquid, 25° C. and 1 atm): 0.0 mass % |
| CCc1ccccc1 [First liquid example (6), Ethylbenzene] | – | Solubility in water ([1]; first liquid, 25° C. and 1 atm): 0.0 mass % |
| CCOc1ccccc1 [First liquid example (7), Phenetole] | – | Solubility in water ([1]; first liquid, 25° C. and 1 atm): 0.1 mass % |
| OCCOCCOc1ccccc1 [Liquid (2), diethylene glycol monophenyl ether, reference compound] | – | solubility in first solution [2]: ≥ 5.0 mass %; Solubility in water [1, 3]: 3.4 mass % |
| CC(=O)OC(C)C [Liquid (4), isopropyl acetate, reference compound] | – | Solubility in water [1]: 2.9 mass % |
| CCCCOC(C)COC(C)COC(C)CO (stereo not drawn) [Liquid (5), tripropylene glycol n-butyl ether, reference compound] | – | solubility in first solution [2]: ≥ 5.0 mass %; Solubility in water [1, 3]: 2.9 mass % |
| CC(=O)OCCCCOC(C)=O [Liquid (6), 1,4-butanediol diacetate, reference compound] | – | solubility in first solution [2]: ≥ 5.0 mass %; Solubility in water [1, 3]: 4.2 mass % |
| COCOC [Second liquid example (2), dimethoxymethane] | 5.0 mass % or | Solubility in water [1, 4]: 32.3 mass % |
| C1CCOOC1 [Second liquid example (3), 1,2-dioxane] | 5.0 mass % or | – |
| C1COCOC1 [Second liquid example (4), 1,3-dioxane] | 5.0 mass % or | – |
| C1OCOCO1 [Second liquid example (6), 1,3,5-trioxane] | 5.0 mass % or | Solubility in water [1, 4]: 21.1 mass % |
| CCCC(C)=O [Second liquid example (8), 2-pentanone] | 5.0 mass % or | Solubility in water [1, 4]: 5.9 mass % |
| COCCOCCOC [Second liquid example (11), diethylene glycol dimethyl ether] | 5.0 mass % or | – |
| COCCOC [Second liquid example (12), ethylene glycol dimethyl ether] | 5.0 mass % or | – |
| CCCCOCC(C)O (stereo not drawn) [Second liquid example (13), propylene glycol n-butyl ether] | 5.0 mass % or | Solubility in water [1, 4]: 6.0 mass % |

| SMILES | Solubility in first liquid [2] | also measured |
| --- | --- | --- |
| CCCOCC(C)O (stereo not drawn) [Second liquid example (14), propylene glycol monopropyl ether] | 5.0 mass % or | – |
| CCOCCOCCO [Second liquid example (16), diethylene glycol monoethyl ether] | 5.0 mass % or | – |
| CC(C)COCCO [Second liquid example (19), ethylene glycol monoisobutyl ether] | 5.0 mass % or | – |
| C=CCOCCO [Second liquid example (20), ethylene glycol monoallyl ether] | 5.0 mass % or | – |
| COCC(C)O (stereo not drawn) [Second liquid example (21), propylene glycol monomethyl ether] | 5.0 mass % or | – |
| COC(C)COC(C)CO (stereo not drawn) [Second liquid example (22), dipropylene glycol monomethyl ether] | 5.0 mass % or | – |
| COC(C)COC(C)COC(C)CO (stereo not drawn) [Second liquid example (23), tripropylene glycol monomethyl ether] | 5.0 mass % or | – |
| CCCCOCC(C)O (stereo not drawn) [Second liquid example (24), propylene glycol monobutyl ether] | 5.0 mass % or | Solubility in water [1, 4]: 6.4 mass % |
| COCC(C)OC(C)=O (stereo not drawn) [Second liquid example (25), propylene glycol monomethyl ether acetate] | 5.0 mass % or | Solubility in water [1, 4]: 20.5 mass % |
| CCOCCOCCOC [Second liquid example (26), diethylene glycol methyl ethyl ether] | 5.0 mass % or | – |
| CCOCCOCCOCC [Second liquid example (27), diethylene glycol diethyl ether] | 5.0 mass % or | – |
| COCC(C)OCC(C)OC (stereo not drawn) [Second liquid example (28), dipropylene glycol dimethyl ether] | 5.0 mass % or | – |
| CC(=O)OCC(C)OC(C)=O (stereo not drawn) [Second liquid example (29), propylene glycol diacetate] | 5.0 mass % or | – |
| CCOC(C)=O [Second liquid example (31), ethyl acetate] | 5.0 mass % or | – |
| COC(C)CCO (stereo not drawn) [Second liquid example (33), 3-methoxybutanol] | 5.0 mass % or | – |
| COC(C)CCOC(C)=O (stereo not drawn) [Second liquid example (34), 3-methoxybutyl acetate] | 5.0 mass % or | – |
